The results in this text go back to ChEMBL document CHEMBL5579794, “Improved synthesis and evaluation of preclinical pharmacodynamic parameters of a new monocyclic β-lactam DPI-2016” (Bioorg Med Chem Lett, 2024).

Data set [1] is described as follows: Stability in human liver microsomes at 0.2 mg/ml measured up to 60 mins in presence of NADPH by LC-MS/MS analysis. The data set is classed as ADME, Microsome. To be noted: 1 h. (In general: Liver microsomes are a subcellular fraction often used to study metabolism.)
Data set [2] is described as follows: Stability in monkey liver microsomes at 0.2 mg/ml measured up to 60 mins in presence of NADPH by LC-MS/MS analysis. To be noted: rhesus monkey, 1 h. The data set is classed as ADME, Macaca mulatta, Microsome.
Data set [3] is described as follows: Stability in dog liver microsomes at 0.2 mg/ml measured up to 60 mins in presence of NADPH by LC-MS/MS analysis. The data set is classed as ADME, Canis lupus familiaris, Microsome. The settings on record: 1 h.
Data set [4] is described as follows: Stability in rat liver microsomes at 0.2 mg/ml measured up to 60 mins in presence of NADPH by LC-MS/MS analysis. The data set is classed as ADME, Microsome. The settings on record: 1 h.
Data set [5] can be described thus: Stability in mouse liver microsomes at 0.2 mg/ml measured up to 60 mins in presence of NADPH by LC-MS/MS analysis. The data set is classed as ADME, Microsome. The settings on record: 1 h.
Data set [6] is described as follows: Stability in human plasma at 1 uM measured upto 120 mins by LC-MS/MS analysis. To be noted: 2 h. The data set is classed as ADME, cell-free.
Data set [7] is described as follows: Stability in monkey plasma at 1 uM measured upto 120 mins by LC-MS/MS analysis. The data set is classed as ADME, cell-free, Macaca mulatta. To be noted: rhesus monkey, 2 h.
The nature of data set [8]: Stability in dog plasma at 1 uM measured upto 120 mins by LC-MS/MS analysis. The settings on record: 2 h. The data set is classed as ADME, cell-free, Canis lupus familiaris.
Data set [9] is described as follows: Stability in rat plasma at 1 uM measured upto 120 mins by LC-MS/MS analysis. The data set is classed as ADME, cell-free. The settings on record: 2 h.
A short description of data set [10]: Stability in mouse plasma at 1 uM measured upto 120 mins by LC-MS/MS analysis. The data set is classed as ADME, cell-free. The settings on record: 2 h.
The nature of data set [11]: Plasma protein binding in human at 1 uM incubated for 6 hrs by LC-MS/MS analysis. The data set is classed as ADME, cell-free. To be noted: read-out: PPB (converted).
Data set [12] is described as follows: Plasma protein binding in rat at 1 uM incubated for 6 hrs by LC-MS/MS analysis. The data set is classed as ADME, cell-free. The settings on record: read-out: PPB (converted).

Take `Cc1ncc2n1-c1ccc(Cl)cc1C(c1ccccc1F)=NC2` [MIDAZOLAM]: the Stability result in [1], in [2], in data set [3], in data set [4] and in [5] was “Unstable” in each case.

For the compound `CC(C)[N+](C)(CCOC(=O)C1c2ccccc2Oc2ccccc21)C(C)C` [PROPANTHELINE], the Stability entry in data set [6], in data set [7], in data set [8], in [9] and in data set [10] was “Unstable” throughout.

Turning to `CC(=O)Nc1ccc(O)cc1` [ACETAMINOPHEN], the figures for the fraction unbound at 6 h, 1 µM in data set [11] and in data set [12] were 0.741 and 0.526, respectively.
